The values below come from patent US6762052B1, “DNA sequence encoding flavin-containing monooxygenase” (priority 1993, dated 2004).

Data set [1] has as its target T1, glu158-HFMO3-MBP (Homo sapiens, UniProt P31513).
T1 sequence (P31513 2-532): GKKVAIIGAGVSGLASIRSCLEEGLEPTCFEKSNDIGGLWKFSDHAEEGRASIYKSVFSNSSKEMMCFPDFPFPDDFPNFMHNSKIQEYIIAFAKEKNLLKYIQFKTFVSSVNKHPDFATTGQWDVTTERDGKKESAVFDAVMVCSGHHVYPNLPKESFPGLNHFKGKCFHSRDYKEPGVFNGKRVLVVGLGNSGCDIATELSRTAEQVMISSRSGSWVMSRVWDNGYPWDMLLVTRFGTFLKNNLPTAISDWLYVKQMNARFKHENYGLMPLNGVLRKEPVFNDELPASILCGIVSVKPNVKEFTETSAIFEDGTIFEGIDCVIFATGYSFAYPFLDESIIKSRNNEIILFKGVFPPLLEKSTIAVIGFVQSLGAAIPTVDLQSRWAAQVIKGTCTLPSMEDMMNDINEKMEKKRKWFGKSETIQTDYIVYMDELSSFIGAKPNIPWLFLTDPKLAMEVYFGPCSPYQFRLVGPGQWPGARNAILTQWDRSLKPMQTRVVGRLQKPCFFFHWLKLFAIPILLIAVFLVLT
The data set can be described thus: Substrate oxygenation by glu158-HFMO3-MBP fusion protein, HPLC. The settings on record: glu158-HFMO3-MBP, N-oxygenation. The protocol: For HFMO3-MBP assay, all HFMO3-MBP incubations were done as follows: Into a test tube was added DETAPAC (1.2 mM, final concentration for a 250 μl reaction) followed by the addition of 60 μl NADPH generating system (0.4 mM NADP, 0.4 mM glucose-6-phosphate, and 20 μl of a 50 units mI^−1 glucose-6-phosphate dehydrogenase). The tube was chilled on ice and buffer and enzyme were added as described below for individual experiments to give a volume of 240 μl. The incubation was initiated by the addition of 5-DTP (10 μl of 5 mM) and placed in a shaking water bath at 37° C. for 10 min (unless specified otherwise). The incubation was stopped by the addition of 1.0 ml of ice-cold CH2Cl2. Following the addition of sodium carbonate (approx. 20 mg), the culture tube was vortexed, centrifuged (2000×g, 10 min), and the organic layer was removed and transferred to a 1.5 ml microfuge tube. The organic solvent was evaporated under a stream of Ar(g) to dryness and the residue was taken up in MeOH (300 μl) for determination HPLC analysis.
Data was analyzed with a Hitachi D-2500 integrator.
MTS-oxygenation assays were carried out under the same buffer, temperature, time and volume conditions, as for the N-oxygenation assays. The reactions were initiated upon addition of 10 μl of a 5 mM solution of MTS. The reaction was quenched with the addition of 700 μl of 80% CH3CN:20% hexane then 20 mg NaCl(s) and vortexed vigorously for 10 sec. The quenched reactions were then centrifuged briefly to separate the phases. The organic layer, containing product and substrate, was removed and used directly for HPLC analysis.
All other instruments used were the same as above for the N-oxygenation reactions. Conditions for elution were 50% CH3CN/H2O (v:v) with a flow rate gradient as follows: 1.5 ml min^−1 from 0 to 4 min., 1.5-2.5 ml min^−1 from 4 to 5 min, 2.5 ml min^−1 from 5 to 15 min.
Trimethylamine is commonly ingested in foodstuffs or it is available in the diet of humans from choline and other sources. Trimethylamine (TMA) is exclusively eliminated in humans by metabolism to trimethylamine N-oxide (TMANO). […]

The subject of data set [2] is Human Liver Microsomes. The data set can be described thus: in vitro.

`CN(C)CCCCCN1c2ccccc2Sc2ccc(C(F)(F)F)cc21` [Compound 5]: the Km (usually the concentration of substrate that gives half-maximal velocity) in data set [1] was 108 µM. In addition, the Vmax in data set [1] (Lineweaver-Burke analysis) is 15.8 nmole/min/nmol of flavin. Besides, in data set [2], the Km was 6.8 µM; the “N-oxide formation, Human Liver Microsomes” value is recorded as 252.1 ± 38.6 pmol/min/mg of protein; the “S-oxide formation, Human Liver Microsomes” value is 32.5 ± 33.7 pmol/min/mg of protein; the “Vmax, Human Liver Microsomes” value is listed as 0.098 nmol/min/mg of protein.
